Results reported in patent US9926304B2, “1-(arylmethyl)quinazoline-2,4(1H,3H)-diones as PARP inhibitors and the use thereof” (Impact Therapeutics, Inc., priority 2011, dated 2018).
Where a name gives a salt, the structure may show the parent alone. Read-outs that look alike come from different tables or passages of the source.

What was measured:
[1] = test system: SW620 human colorectal cancer cells; assay: MTT based cell viability assay: potentiation of the growth inhibiting activity of MMS
[2] = test system: Human breast cancer cell line T47D; assay: Cell based caspase-3 activity assay: potentiation of MMS induced apoptosis; details: T47D cells, 11.1 μg/ml MMS, 24 hours, intracellular caspase-3 activity, read-out: EC50 (nM), potentiation of the apoptosis inducing activity of MMS
Text: Determination of the synergistic potentiation effect of 1-(3-(4-(pyrimidin-2-yl)piperazine-1-carbonyl)benzyl)quinazoline-2,4(1H,3H)-dione and analogs on MMS induced apoptosis using a cell based caspase-3 activity assay
Human breast cancer cell line T47D was used to determine the potentiation effect of PARP inhibitors on the apoptosis inducing activity of DNA damaging anticancer drugs such as MMS. Intracellular caspase-3 activity was used to measure cell apoptosis. The dose response effect of MMS to induce intracellular caspase activity was carefully titrated and the concentration that only induces a minimal level of caspase activity was used to test the potentiation effect of PARP inhibitors. Briefly, T47D cells were grown in DMEM/F12 cell culture medium (Hyclone) supplemented with 0.2 U/ml insulin (Genview) and 10% FBS (Hyclone). A day before experiment, 20000 of T47D cells were seeded to each well of a 96-well cell culture plate and maintained at 37° C. and 5% CO2 in a cell culture incubator overnight. On the day of experiment, cell culture medium was removed. One hundred and eighty μl of fresh medium containing 11.1 μg/ml MMS was added to each well and followed by 20 μl medium containing 10 folds of the concentrations of experimental drugs or reference compounds (ADZ2281 and ABT-888). The serial dilutions of the compounds to be tested and the reference compounds were made in a 1:3 and 1:10 fashion in DMSO. The 10-fold compound solutions were made by mixing 10 μl DMSO serial dilution solutions with 90 μl fresh growth medium. Twenty four hours later, the cells in the 96-well plates were centrifuged at 1000 g for 5 min and the supernatants were removed. Fifty μl lysis buffer (10 mM Tris, pH7.5, 0.1M NaCl, 1 mM EDTA, 0.01% Triton X-100) was added to each well and the plates were shaked horizontally for 30 min at 4° C. After centrifugation at 1000 g at 4° C. for 10 min, 20 μl of supernatant was transferred from each well to a corresponding well in a 384-well black plate. Twenty μl of buffer (20 mM PIPES, pH7.4, 4 mM EDTA and 0.2% CHAPS) containing 20 μM fluorescent caspase-3 substrate ((Ac-DEVD)2-R110, AnaSpec Cat #60304-5) was added to each well afterwards. The plates were shaked to uniformly mix the wells and incubated at 37° C. for 3 h. The fluorescence intensity was measured using the following wavelength: ex: 496 nm, em: 520 nm using a fluorescence plate reader (Varioskan Flash, Thermo Fisher Scientific). The caspase-3 activity induced by the compounds was expressed as a relative fluorescence unit (RFU). The obtained fluorescence readings were analyzed using a commercial graphic software (GraphPad Prism 5) and plotted against the Log value of the compound concentrations. The EC50 values were obtained by fitting the data points with the equation of Y (fluorescence reading)=minimal fluorescence reading+(maximal fluorescence reading−minimal fluorescence reading)/(1+10^(Log EC50−Log C)), where C is the concentration of the testing compound.
The synergistic potentiation effect of compounds on MMS induced apoptosis in T47D cells is expressed as EC50 values and listed in Table 2.

[3] = Homo sapiens, SW-620, 120 h, read-out: IC50 (nM), potentiation of the growth inhibiting activity of MMS, SW620 cells, 1.7 μg/ml MMS, 5 days (120 hours), MTT
[4] = read-out: IC50 (nM), potentiation of the growth inhibiting activity of MMS, SW620 cells, 1.7 μg/ml MMS, 5 days (120 hours), MTT

| Molecule | IC50 [1, 3] [nM] | EC50 ([2]; Homo sapiens, T47D, 24 h) [nM] | further results |
| --- | --- | --- | --- |
| CCS(=O)(=O)N1CCN(C(=O)c2cccc(Cn3c(=O)[nH]c(=O)c4ccccc43)c2)CC1 [Example 16, 1-(3-(4-(Ethylsulfonyl)piperazine-1-carbonyl)benzyl)quinazoline-2,4(1H,3H)-dione] | 7260 | 9210 |  |
| 1-(3-(4-Phenylpiperidine-1-carbonyl)benzyl)quinazoline-2,4(1H,3H)-dione [Example 18] |  |  | IC50 [1, 4]: > 10000 nM; EC50 [2]: > 10000 nM |
| COc1ccc(C(=O)N2CCN(C(=O)c3ccc(Cn4c(=O)[nH]c(=O)c5ccccc54)cc3)CC2)cc1 [Example 95, 1-(4-(4-(4-Methoxybenzoyl)piperazine-1-carbonyl)benzyl)quinazoline-2,4(1H,3H)-dione] | > 10000 | > 10000 |  |
| O=C(c1cccc(Cn2c(=O)[nH]c(=O)c3ccc(F)cc32)c1)N1CCN(C(=O)C2CCCC2)CC1 [Example 77, 1-(3-(4-(Cyclopentylcarbonyl)piperazine-1-carbonyl)benzyl)-7-fluoroquinazoline-2,4(1H,3H)-dione] | 2960 | 5210 |  |
| O=C(c1ccc(Cn2c(=O)[nH]c(=O)c3ccccc32)o1)N1CCN(C(=O)C2CCCC2)CC1 [Example 67, 1-((2-(4-(Cyclopentylcarbonyl)piperazine-1-carbonyl)furan-5-yl)methyl)quinazoline-2,4(1H,3H)-dione] | 2050 | 4820 |  |
| COc1ccc(CNC(=O)c2cc(Cn3c(=O)[nH]c(=O)c4c(F)cccc43)ccc2F)cc1 [Example 200, 5-Fluoro-1-(4-fluoro-3-(4-methoxybenzylcarbamoyl)benzyl)quinazoline-2,4(1H,3H)-dione] | > 10000 | > 10000 |  |
| O=C(c1ccccc1)N1CCN(C(=O)c2ccc(Cn3c(=O)[nH]c(=O)c4ccccc43)cc2)CC1 [Example 93, 1-(4-(4-Benzoylpiperazine-1-carbonyl)benzyl)quinazoline-2,4(1H,3H)-dione] | > 10000 | > 10000 |  |
| O=C(c1cc(Cn2c(=O)[nH]c(=O)c3c(F)cccc32)ccc1F)N1CCN(c2ncccn2)CC1 [Example 193, 5-Fluoro-1-(4-fluoro-3-(4-(pyrimidin-2-yl)piperazine-1-carbonyl)benzyl)quinazoline-2,4(1H,3H)-dione hydrochloride] |  |  | IC50 ([1]; read-out: IC50 (nM), potentiation of the growth inhibiting activity of MMS, SW620 cells, 1.7 μg/ml MMS, 5 days (120 hours), MTT, hydrochloride): 4.5 nM; EC50 ([2]; hydrochloride): 1.6 nM |
| O=C(c1cccc(Cn2c(=O)[nH]c(=O)c3ccccc32)c1Cl)N1CCN(C(=O)C2CCCC2)CC1 [Example 59, 1-(2-Chloro-3-(4-(cyclopentylcarbonyl)piperazine-1-carbonyl)benzyl)quinazoline-2,4(1H,3H)-dione] | > 10000 | > 10000 |  |
| O=C(c1cccc(Cn2c(=O)[nH]c(=O)c3cc4c(cc32)OCCO4)c1)N1CCN(c2ncccn2)CC1 [Example 207, 6,7-Ethylenedioxo-1-(3-(4-(pyrimidin-2-yl)piperazine-1-carbonyl)benzyl)quinazoline-2,4(1H,3H)-dione] |  |  | IC50 [1, 4]: > 10000 nM; EC50 [2]: > 10000 nM |

Further lines, with some results ahead:

| IC50 [1, 3] [nM] | EC50 ([2]; Homo sapiens, T47D, 24 h) [nM] | Molecule | further results |
| --- | --- | --- | --- |
| 16 | 14 | O=C(c1ccc(F)c(Cn2c(=O)[nH]c(=O)c3c(F)cccc32)c1)N1CCN(C(=O)C2CCC2)CC1 [Example 182, 1-(3-(4-(Cyclobutylcarbonyl)piperazine-1-carbonyl)-6-fluorobenzyl)-5-fluoroquinazoline-2,4(1H,3H)-dione] |  |
| 351 | 281 | O=C(c1cccc(Cn2c(=O)[nH]c(=O)c3cccc(F)c32)c1)N1CCN(C(=O)C2CCCCC2)CC1 [Example 138, 1-(3-(4-(Cyclohexylcarbonyl)piperazine-1-carbonyl)benzyl)-8-fluoroquinazoline-2,4(1H,3H)-dione] |  |
| 604 | 614 | O=C(c1cccc(Cn2c(=O)[nH]c(=O)c3ccccc32)c1)N1CCC(Oc2ccccc2)CC1 [Example 39, 1-(3-(4-Phenoxypiperidine-1-carbonyl)benzyl)quinazoline-2,4(1H,3H)-dione] |  |
| 4 | 1.6 | O=C(c1cc(Cn2c(=O)[nH]c(=O)c3c(F)cccc32)ccc1F)N1CCN(C(=O)C2CCC2)CC1 [Example 166, 1-(3-(4-(Cyclobutylcarbonyl)piperazine-1-carbonyl)-4-fluorobenzyl)-5-fluoroquinazoline-2,4(1H,3H)-dione] |  |
| 500 | 426 | O=C(c1ccc(F)cc1)N1CCN(C(=O)c2cccc(Cn3c(=O)[nH]c(=O)c4ccccc43)c2)CC1 [Example 9, 1-(3-(4-(4-Fluorobenzoyl)piperazine-1-carbonyl)benzyl)quinazoline-2,4(1H,3H)-dione] |  |
| 70 | 67 | O=C(c1cccc(Cn2c(=O)[nH]c(=O)c3ccccc32)n1)N1CCN(c2ncccn2)CC1 [Example 71, 1-((2-(4-(Pyrimidin-2-yl)piperazine-1-carbonyl)pyridin-6-yl)methyl)quinazoline-2,4(1H,3H)-dione] |  |
| 52 | 18 | Cc1ccc2c(c1)c(=O)[nH]c(=O)n2Cc1ccc(F)c(C(=O)N2CCN(C(=O)C3CCCCC3)CC2)c1 [Example 84, 1-(3-(4-(Cyclohexylcarbonyl)piperazine-1-carbonyl)-4-fluorobenzyl)-6-methylquinazoline-2,4(1H,3H)-dione] |  |
| 84 | 24 | Cc1cccc2c(=O)[nH]c(=O)n(Cc3cccc(C(=O)N4CCN(c5ncccn5)CC4)c3)c12 [Example 226, 8-Methyl-1-(3-(4-(pyrimidin-2-yl)piperazine-1-carbonyl)benzyl)quinazoline-2,4(1H,3H)-dione] |  |
| 48 | 13 | O=C(c1cccc(Cn2c(=O)[nH]c(=O)c3cc(Cl)ccc32)c1)N1CCN(C(=O)C2CCC2)CC1 [Example 116, 6-Chloro-1-(3-(4-(cyclobutylcarbonyl)piperazine-1-carbonyl)benzyl)quinazoline-2,4(1H,3H)-dione] |  |
| 1190 | 495 | O=C(c1cccc(Cn2c(=O)[nH]c(=O)c3ccc(Cl)cc32)c1)N1CCN(C(=O)C2CCCC2)CC1 [Example 162, 7-Chloro-1-(3-(4-(cyclopentylcarbonyl)piperazine-1-carbonyl)benzyl)quinazoline-2,4(1H,3H)-dione] |  |
| 42 | 8.8 | O=C(c1cc(Cn2c(=O)[nH]c(=O)c3cc(Cl)ccc32)ccc1F)N1CCN(c2ccccn2)CC1 [Example 120, 6-Chloro-1-(4-fluoro-3-(4-(pyridin-2-yl)piperazine-1-carbonyl)benzyl)quinazoline-2,4(1H,3H)-dione] |  |
| 70 | 23 | O=C(c1ccc(F)c(Cn2c(=O)[nH]c(=O)c3c(Cl)cccc32)c1)N1CCN(C(=O)c2cccs2)CC1 [Example 171, 5-Chloro-1-(6-fluoro-3-(4-(thiophene-2-carbonyl)piperazine-1-carbonyl)benzyl)quinazoline-2,4(1H,3H)-dione] |  |
| 28 | 42 | O=C(c1cc(Cn2c(=O)[nH]c(=O)c3c(F)cccc32)ccc1F)N1CCN(C(=O)C2CC2)CC1 [Example 163, 1-(3-(4-(Cyclopropylcarbonyl)piperazine-1-carbonyl)-4-fluorobenzyl)-5-fluoroquinazoline-2,4(1H,3H)-dione] |  |
| 145 | 166 | O=C(c1cc(Cn2c(=O)[nH]c(=O)c3c(F)cccc32)ccc1[N+](=O)[O-])N1CCN(c2ncccn2)CC1 [Example 211, 5-Fluoro-1-(4-nitro-3-(4-(pyrimidin-2-yl)piperazine-1-carbonyl)benzyl)quinazoline-2,4(1H,3H)-dione] |  |
